Data taken from article PMC6804264, “Enlarged Pore Size Chiral Mesoporous Silica Nanoparticles Loaded Poorly Water-Soluble Drug Perform Superior Delivery Effect” (Molecules, 2019).

Experiments:
[1] = test system: right hind ankle swelling after carrageenan injection into the paw; assay: Anti-inflammatory pharmacodynamics (carrageenan paw model, right hind ankle perimeter); format: in vivo, male Sprague–Dawley rats; details: rats, oral, 40 mg/kg NMS
Description: Right hind ankle perimeter of rats was ascertained to study the anti-inflammatory biological effect of […] or NMS/E-CMSN. Twelve male Sprague-Dawley rats (200 ± 20 g) were separated into four groups (Group A: Normal saline; Group B: NMS; Group C: NMS/CMSN; Group D: NMS/E-CMSN) and then fasted overnight before experiment. The rats in Group B, Group C and Group D were administered orally with corresponding nanoparticles containing 40 mg/kg NMS, while the rats in Group A were administered orally with normal saline. Afterwards, the perimeters of right hind ankles were ascertained. After half an hour, 0.1 mL 1% carrageenan solution was injected subcutaneously into the paw of each rat. […] Then, the following parameters were calculated. (2) Repressionrate(%)=([…]0)positive (3) Swelling rate(%)=Ct-C0/C0×100 where C0 denotes original perimeter of right hind ankle; Ct is the measured perimeter of right hind ankle.

[2] = Contact angle measurement (wetting property); format: physicochemical; details: pH 6.8 PBS; pH 6.8 PBS including trysin (Figure 6)
Description: To study the wettability differences after loading NMS into the two carriers, dynamic contact angle measurement was performed using JCY series (Shanghai, China). The working conditions covered: Automatic contact angle meter model, pressurized tablet of sample, as well as a drop of dissolution medium (2 μL). The measurement was started when dissolution medium dropped onto the tablet.

[3] = In vivo pharmacokinetics after oral (intragastric) administration; details: male, Wistar, rat, rats, 40 mg/kg NMS, plasma
Description: 9 Male Wistar rats weighing 200 ± 20 g were randomly split into three groups (A group, NMS; B group, NMS/CMSN; C group, NMS/E-CMSN) and fasted for 12 h but given free access to water prior to the experiment. The three samples were suspended in 1.5 mL normal saline with the drug dose of 40 mg/kg and then orally administered (intragastric administration) to rats. Blood media (0.5 mL) of each animal was collected via the suborbital vein at different time intervals after administration and immediately centrifuged at 8000 rpm for 10 min to collect plasma. Subsequently, the obtained plasma was then stored at […] until analysis. 200 μL plasma sample was mixed with 80 μL of an internal standard solution (0.5 mg/mL) and 400 μL acetonitrile. The mixture was vortexed for 2 min. After centrifugation at 10,000 rpm for 5 min, the supernatant of each sample (20 μL) was subjected to HPLC analysis. The working conditions for HPLC analysis included: Mobile phase: methanol: pH 7.3 potassium dihydrogen phosphate buffer (65:35, v/v); Column temperature: 30 °C; Analysis wavelength: 370 nm; Flow rate: 1.0 mL/min.

[4] = stated in the introduction, no reference given; cited from earlier work

wetting property / contact angle [2]: poor water wetting property
AUC(0-t) ([3]; n = 3): 199 ± 66.6 µg·h/mL
Cmax ([3]; n = 3): 25400 ± 9680 ng/mL
Tmax ([3]; n = 3): 4 h
MRT last ([3]; n = 3, read-out: MRT(0–t)): 5.73 ± 0.354 h
half-life ([3]; n = 3, read-out: t1/2z (converted)): 5.08 ± 2.81 h
Structure (SMILES): CS(=O)(=O)Nc1ccc([N+](=O)[O-])cc1Oc1ccccc1 [NMS, nimesulide]
time at which anti-inflammatory function started [1]: 0.5 h
anti-inflammatory effect according to swelling rate profiles ([1]; 0.5-4 h): exerted anti-inflammatory pharmacodynamics effect
LogP value [4]: 3.79
